What is called inhibition is the percentage by which the read-out fell short of the control. A word on the IC50: it is the midpoint of a concentration-inhibition curve.

For series [1], the system named is RAW264.7. The series is described as follows: Inhibition of LPS-induced NO release in mouse RAW264.7 cells at 20 uM preincubated with compound for 48 hrs followed by LPS addition and measured after 24 hrs by nitric oxide assay relative to control. Type of series: functional. The note with it: time 72 hrs.
Series [2] deals with RAW264.7. The series is described as follows: Cytotoxicity against mouse RAW264.7 cells assessed as reduction in cell viability at 20 uM incubated for 48 hrs by MTT method. Type of series: toxicity, cell-based. The note with it: raw264.7, 48 h. (Tetrazolium assays rely on reduction of a dye to a coloured formazan, in cell work by metabolically active cells.)
Series [3] has as its system RAW264.7. The series can be described thus: Inhibition of LPS-induced NO release in mouse RAW264.7 cells preincubated with compound for 48 hrs followed by LPS addition and measured after 24 hrs by nitric oxide assay. Type of series: functional, cell-based.
Series [4] has as its system RAW264.7. The series can be described thus: Downregulation of iNOS expression in LPS-induced mouse RAW264.7 cells preincubated for 3 hrs followed by LPS addition for 30 mins by Western blotting analysis. The note with it: time 3.5 hrs. Type of series: functional, cell-based.
Series [5] deals with RAW264.7. The series is described as follows: Downregulation of COX-2 expression in LPS-induced mouse RAW264.7 cells preincubated for 3 hrs followed by LPS addition for 30 mins by Western blotting analysis. Type of series: functional, cell-based. The note with it: time 3.5 hrs. A general note: Immunoblotting shows a protein as a band on a membrane.
Series [6] concerns RAW264.7. The series is described as follows: cells. The note with it: Mus musculus.
Description: Antiinflammatory activity against mouse RAW264.7 cells assessed as inhibition of LPS-induced IIL-6 secretion pretreated with LPS for 3 hrs followed by compound addition and measured after 24 hrs by ELISA
For series [7], the system named is RAW264.7. The series can be described thus: cells. The note with it: Mus musculus. The source holds these as a separate data set.
Description: Antiinflammatory activity against mouse RAW264.7 cells assessed as inhibition of LPS-induced IIL-1beta secretion pretreated with LPS for 3 hrs followed by compound addition and measured after 24 hrs by ELISA
Series [8] deals with RAW264.7. The series can be described thus: Antiinflammatory activity against mouse RAW264.7 cells assessed as decrease in LPS-induced IIL-1beta release preincubated for 3 hrs followed by LPS addition for 30 mins by Western blotting analysis. In kind it is functional, cell-based. The note with it: dose 4-16 µM, time 3.5 hrs.
Series [9] deals with RAW264.7. The series can be described thus: Antiinflammatory activity against mouse RAW264.7 cells assessed as decrease in LPS-induced TNF-alpha release preincubated for 3 hrs followed by LPS addition for 30 mins by Western blotting analysis. Type of series: functional, cell-based. The note with it: dose 4-16 µM.
In series [10] the test system is RAW264.7. The series can be described thus: Antiinflammatory activity against mouse RAW264.7 cells assessed as decrease in LPS-induced IIL-6 release preincubated for 3 hrs followed by LPS addition for 30 mins by Western blotting analysis. Type of series: functional, cell-based. The note with it: dose 4-16 µM, time 3.5 hrs.
For series [11], the system named is RAW264.7. The series is described as follows: cells. The note with it: Mus musculus. The source holds these as a separate data set.
Description: Antiinflammatory activity against mouse RAW264.7 cells assessed as inhibition of LPS-induced TNF-alpha secretion pretreated with LPS for 3 hrs followed by compound addition and measured after 24 hrs by ELISA

Structures are written as SMILES.

Consider `COc1cc(/C=C/c2ccc(OCC(=O)O)cc2)c(/C=N/OCc2ccc(Br)cc2)c(OC)c1`, for which the inhibition at 20 µM in the series on RAW264.7 [1] is 13.7%. In the series with RAW264.7 [2], the Activity result is “Non-toxic”.

For `COc1cc(/C=C/c2ccc(OCC(=O)O)cc2)c(/C=N/OCc2ccc(Cl)c(F)c2)c(OC)c1`, in the series on RAW264.7 [1], the inhibition at 20 µM came to 23.8%. Further, in the series on RAW264.7 [2], the Activity result is reported as “Non-toxic”.

Turning to `CCNC(=O)COc1ccc(/C=C/c2cc(OC)cc(OC)c2/C=N/OCc2ccc(Cl)cc2)cc1`, the inhibition at 20 µM in the series on RAW264.7 [1] stood at 49.2%. Moreover, the Activity result in the series with RAW264.7 [2] is on record as “Non-toxic”.

Regarding `C#CCO/N=C/c1c(/C=C/c2ccc(OCC(=O)O)cc2)cc(OC)cc1OC`, in the series with RAW264.7 [1], the inhibition at 20 µM came to 22.2%. Also, the Activity result in the series with RAW264.7 [2] is “Non-toxic”.

Take `COc1cc(/C=C/c2ccc(OCC(=O)O)cc2)c(/C=N/OCc2ccc(Cl)cc2)c(OC)c1`: the inhibition at 20 µM in the series with RAW264.7 [1] turned out to be 24.8%. Besides, the Activity entry in the series with RAW264.7 [2] is recorded as “Non-toxic”.

For `CCOC(=O)COc1ccc(/C=C/c2cc(OC)cc(OC)c2/C=N/OCc2ccc(C)cc2)cc1`, the inhibition at 20 µM in the series on RAW264.7 [1] turned out to be 20%. In addition, in the series on RAW264.7 [2], the Activity entry is reported as “Non-toxic”.

Consider `CCNC(=O)COc1ccc(/C=C/c2cc(OC)cc(OC)c2/C=N/OCc2ccc(Cl)c(F)c2)cc1`, for which the inhibition at 20 µM in the series with RAW264.7 [1] was 40.6%. The Activity result in the series on RAW264.7 [2] is on record as “Non-toxic”.

As for `CCOC(=O)COc1ccc(/C=C/c2cc(OC)cc(OC)c2/C=N/OCc2ccc(Cl)cc2)cc1`, in the series with RAW264.7 [1], the inhibition at 20 µM worked out at 29%. Also, in the series on RAW264.7 [2], the Activity entry is “Non-toxic”.

`CCOC(=O)COc1ccc(/C=C/c2cc(OC)cc(OC)c2/C=N/OCc2ccc(Br)c(F)c2)cc1`: the inhibition at 20 µM with RAW264.7 [1] was 29.3%. Moreover, the Activity entry in the series with RAW264.7 [2] is “Non-toxic”.

As to `CCOC(=O)COc1ccc(/C=C/c2cc(OC)cc(OC)c2/C=N/OCc2ccccc2)cc1`, the inhibition at 20 µM in the series on RAW264.7 [1] was 37.8%. Further, the Activity entry with RAW264.7 [2] is “Non-toxic”.

As for `CCCC(=O)OCCCNC(=O)COc1ccc(/C=C/c2cc(OC)cc(OC)c2/C=N/OCc2ccc(F)cc2)cc1`, the inhibition at 20 µM in the series with RAW264.7 [1] was determined as 47.1%. Moreover, the Activity result in the series on RAW264.7 [2] is listed as “Non-toxic”.

Regarding `CCCCCCCC(=O)OCCCNC(=O)COc1ccc(/C=C/c2cc(OC)cc(OC)c2/C=N/OCc2ccc(F)cc2)cc1`, the inhibition at 20 µM in the series with RAW264.7 [1] worked out at 20.8%. Also, in the series with RAW264.7 [2], the Activity entry is given as “Non-toxic”.

With `CCOC(=O)COc1ccc(/C=C/c2cc(OC)cc(OC)c2/C=N/OCc2ccc(Br)cc2)cc1`, the inhibition at 20 µM in the series on RAW264.7 [1] was found to be 19.5%. For the same compound, the Activity entry with RAW264.7 [2] is on record as “Non-toxic”.

Take `CCCCO/N=C/c1c(/C=C/c2ccc(OCC(=O)OCC)cc2)cc(OC)cc1OC`: in the series on RAW264.7 [1], the inhibition at 20 µM came to 17.2%. For the same compound, the Activity result in the series with RAW264.7 [2] was “Non-toxic”.

On to `CCNC(=O)COc1ccc(/C=C/c2cc(OC)cc(OC)c2/C=N/OCc2ccccc2)cc1`, for which the IC50 with RAW264.7 [3] was 12.3 µM. The inhibition at 20 µM in the series with RAW264.7 [1] was 71.3%. Besides, in the series on RAW264.7 [2], the Activity entry is reported as “Non-toxic”.

`CCCCCC(=O)OCCCNC(=O)COc1ccc(/C=C/c2cc(OC)cc(OC)c2/C=N/OCc2ccc(F)cc2)cc1`: in the series with RAW264.7 [1], the inhibition at 20 µM was 33.1%. In addition, the Activity entry in the series on RAW264.7 [2] is “Non-toxic”.

In the case of `COc1cc(/C=C/c2ccc(OCC(=O)O)cc2)c(/C=N/OCc2ccccc2)c(OC)c1`, the inhibition at 20 µM in the series on RAW264.7 [1] is 25.2%. For the same compound, in the series with RAW264.7 [2], the Activity entry was “Non-toxic”.

As to `CCOC(=O)COc1ccc(/C=C/c2cc(OC)cc(OC)c2/C=N/OCc2ccc(Cl)c(F)c2)cc1`, the inhibition at 20 µM with RAW264.7 [1] is 28.1%. In addition, the Activity result in the series on RAW264.7 [2] is reported as “Non-toxic”.

Regarding `CCOC(=O)COc1ccc(/C=C/c2cc(OC)cc(OC)c2/C=N/OCc2ccc(C(F)(F)F)cc2)cc1`, in the series on RAW264.7 [1], the inhibition at 20 µM stood at 18.6%. Further, the Activity result in the series with RAW264.7 [2] is “Non-toxic”.

As to `COc1cc(/C=C/c2ccc(OCC(=O)NCCCO)cc2)c(/C=N/OCc2ccc(Cl)cc2)c(OC)c1`, in the series with RAW264.7 [3], the IC50 turned out to be 18.1 µM. Also, the inhibition at 20 µM in the series with RAW264.7 [1] came out at 64.6%. For the same compound, the Activity result in the series with RAW264.7 [2] is listed as “Non-toxic”.

On to `COc1cc(/C=C/c2ccc(OCC(=O)NCCCO)cc2)c(/C=N/OCc2ccc(Cl)c(F)c2)c(OC)c1`, for which the IC50 in the series on RAW264.7 [3] was 17.4 µM. In addition, the inhibition at 20 µM in the series with RAW264.7 [1] is 61%. For the same compound, the Activity entry in the series with RAW264.7 [2] is recorded as “Non-toxic”.

As to `CCNC(=O)COc1ccc(/C=C/c2cc(OC)cc(OC)c2/C=N/OCc2ccc(Br)c(F)c2)cc1`, the inhibition at 20 µM in the series with RAW264.7 [1] was 42.1%. Also, the Activity result in the series with RAW264.7 [2] was “Non-toxic”.

Turning to `COc1cc(/C=C/c2ccc(OCC(=O)O)cc2)c(/C=N/OCc2ccc(C(F)(F)F)cc2)c(OC)c1`, the inhibition at 20 µM in the series on RAW264.7 [1] is 21.8%. Further, the Activity entry in the series on RAW264.7 [2] is listed as “Non-toxic”.

With `C#CCO/N=C/c1c(/C=C/c2ccc(OCC(=O)OCC)cc2)cc(OC)cc1OC`, the inhibition at 20 µM with RAW264.7 [1] was found to be 21.8%. Besides, the Activity result in the series with RAW264.7 [2] is “Non-toxic”.

For the compound `Cc1ccc(-c2cc(C(F)(F)F)nn2-c2ccc(S(N)(=O)=O)cc2)cc1` [CELECOXIB], the inhibition at 20 µM in the series on RAW264.7 [1] amounted to 29.4%.

For the compound `COc1cc(/C=C/c2ccc(OCC(=O)O)cc2)c(/C=N/OCc2ccc(F)cc2)c(OC)c1`, the inhibition at 20 µM with RAW264.7 [1] came out at 26.1%. In addition, the Activity result with RAW264.7 [2] was “Non-toxic”.

Consider `CCNC(=O)COc1ccc(/C=C/c2cc(OC)cc(OC)c2/C=N/OCc2ccc(F)cc2)cc1`, for which the IC50 with RAW264.7 [3] was 14.6 µM. The inhibition at 20 µM in the series on RAW264.7 [1] stood at 68.5%. Also, in the series with RAW264.7 [2], the Activity result is “Non-toxic”.

Consider `COc1cc(/C=C/c2ccc(OCC(=O)O)cc2)c(/C=N/OCc2ccc(C)cc2)c(OC)c1`, for which, in the series on RAW264.7 [1], the inhibition at 20 µM was determined as 18.9%. In the series on RAW264.7 [2], the Activity entry was “Non-toxic”.

As to `CCOC(=O)COc1ccc(/C=C/c2cc(OC)cc(OC)c2/C=N/OCc2ccc(F)cc2)cc1`, the inhibition at 20 µM in the series on RAW264.7 [1] is 28.6%. Also, the Activity entry in the series with RAW264.7 [2] is given as “Non-toxic”.

For the compound `COc1cc(/C=C/c2ccc(OCC(=O)NCCCO)cc2)c(/C=N/OCc2ccccc2)c(OC)c1`, in the series with RAW264.7 [1], the inhibition at 20 µM worked out at 34.7%. The Activity entry with RAW264.7 [2] is “Non-toxic”.

For `COc1cc(/C=C/c2ccc(OCC(=O)NCCCO)cc2)c(/C=N/OCc2ccc(F)cc2)c(OC)c1`, the Activity result in the series on RAW264.7 [4] is “Dose-dependent-effect”; in the series with RAW264.7 [5], “Dose-dependent-effect”; in the series on RAW264.7 [8], “Dose-dependent-effect”; in the series with RAW264.7 [2] it was “Non-toxic”; with RAW264.7 [9] it was “Dose-dependent-effect”; in the series on RAW264.7 [10] it was “Dose-dependent-effect”. Besides, the IC50 in the series with RAW264.7 [3] amounted to 9.87 µM; in the series on RAW264.7 [6] it was 6.76 µM; with RAW264.7 [7], 7.36 µM; with RAW264.7 [11] it was 9.14 µM. The inhibition at 20 µM in the series with RAW264.7 [1] was found to be 86.7%.

Take `COc1cc(/C=C/c2ccc(OCC(=O)NCCCO)cc2)c(/C=N/OCc2ccc(Br)c(F)c2)c(OC)c1`: the inhibition at 20 µM in the series on RAW264.7 [1] was found to be 48%. Besides, the Activity entry in the series with RAW264.7 [2] is listed as “Non-toxic”.

Take `COc1cc(/C=C/c2ccc(OCC(=O)O)cc2)c(/C=N/OCc2ccc(Br)c(F)c2)c(OC)c1`: the inhibition at 20 µM with RAW264.7 [1] came out at 25.8%. For the same compound, in the series with RAW264.7 [2], the Activity result was “Non-toxic”.

Take `CCCCO/N=C/c1c(/C=C/c2ccc(OCC(=O)O)cc2)cc(OC)cc1OC`: in the series with RAW264.7 [1], the inhibition at 20 µM came to 20.2%. For the same compound, the Activity entry in the series on RAW264.7 [2] is reported as “Non-toxic”.

For the origin of these results see ChEMBL document CHEMBL6078685, “Potential COX-2 inhibitors modulating NF-κB/MAPK signaling pathways: Design, synthesis and evaluation of anti-inflammatory activity of Pterostilbene-carboxylic acid derivatives with an oxime ether moiety” (Bioorg Med Chem, 2025).
